PMC12063043, “Exploring Tyramine's Role in the Formation of Supramolecular Adducts with Nonsteroidal Anti‐Inflammatory Drugs” (Chemistry (Weinheim an Der Bergstrasse, Germany), 2025)
In brackets after ≈: the same amount, converted by molar mass.

Experiments:
[1] = pKa of the co-former TYA and the APIs, and ΔpKa rule; format: physicochemical; details: heading: ΔpKa [= pKa – pKa]; for the adduct of the API (acid) with TYA (base)
[2] = Aqueous solubility tests by solution 1H NMR; details: for solubility at 3 days: deionized water, water, thermodynamic from solid
[3] = ref PubChem; cited from earlier work

| SMILES | ΔpKa [1] | solubility at 3 days [2] [µg/mL] | pKa [3] | Increase in aqueous solubility of adduct versus pure API ([2]; aqueous solution, adduct versus pure API) [fold] | Aqueous solubility ([2]; deionized H2O, stirred 3 days, filtered, 1H NMR at 298 K with TSP internal standard, concentration of the drug in solution, average of three measurements ± standard deviation) [mg/mL] |
| --- | --- | --- | --- | --- | --- |
| O=C(O)c1cc(-c2ccc(F)cc2F)ccc1O [DIF, 2′,4′‐difluoro‐4‐hydroxy‐[1,1′‐biphenyl]‐3‐carboxylic acid] | 6.36 | 28 ± 2 (≈ 112 µM) |  |  |  |
| NCCc1ccc(O)cc1 [TYA, 4‐(2‐aminoethyl)phenol] |  |  | 9.66^[ ^a ^] |  |  |
| NCCc1ccc(O)cc1.O=C(O)c1cc(-c2ccc(F)cc2F)ccc1O [DIF-TYA Form II] |  |  |  | 17 | 0.473 ± 0.079 |
| CC(C(=O)O)c1ccc(-c2ccccc2)c(F)c1 (racemic) [FLU, (±)‐2‐(2‐fluorobiphenyl‐4‐yl)propionic acid] | 5.44 | 19 ± 2 (≈ 77.8 µM) |  |  |  |
